Reference: PubChem BioAssay (NCI)
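Five concentrations, 48 hours, 96-well plates. The concentration for 50% growth inhibition is given as GI50. TGI denotes the concentration required for complete inhibition of growth.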

Assays:
Experiment in all cases: inhibition of tumour cell growth, NCI panel, 48 h
OVCAR-4 ovarian = system: OVCAR-4 ovarian
RXF 393 renal = system: RXF 393 renal
HCT-116 colon = system: HCT-116 colon
SNB-19 CNS = system: SNB-19 CNS
TK-10 renal = system: TK-10 renal
BT-549 breast = system: BT-549 breast
DU-145 prostate = system: DU-145 prostate
NCI-H522 lung = system: NCI-H522 lung
U251 CNS = system: U251 CNS
NCI/ADR-RES ovarian = system: NCI/ADR-RES ovarian
HOP-92 NSCLC = system: HOP-92 NSCLC
UO-31 renal = system: UO-31 renal
MALME-3M melanoma = system: MALME-3M melanoma
HS 578T breast = system: HS 578T breast
CAKI-1 renal = system: CAKI-1 renal
CCRF-CEM leukemia = system: CCRF-CEM leukemia
HL-60(TB) leukemia = system: HL-60(TB) leukemia
OVCAR-3 ovarian = system: OVCAR-3 ovarian
NCI-H460 lung = system: NCI-H460 lung
MOLT-4 leukemia = system: MOLT-4 leukemia
KM12 colon = system: KM12 colon
NCI-H226 lung = system: NCI-H226 lung
SN12C renal = system: SN12C renal
ACHN renal = system: ACHN renal
MDA-MB-231 breast = system: MDA-MB-231 breast
SR leukemia = system: SR leukemia
T-47D breast = system: T-47D breast
HT29 colon = system: HT29 colon
PC-3 prostate = system: PC-3 prostate
786-0 renal = system: 786-0 renal
SK-MEL-5 melanoma = system: SK-MEL-5 melanoma
HOP-62 NSCLC = system: HOP-62 NSCLC
COLO 205 colon = system: COLO 205 colon
SW-620 colon = system: SW-620 colon
EKVX NSCLC = system: EKVX NSCLC
SF-268 CNS = system: SF-268 CNS
IGROV1 ovarian = system: IGROV1 ovarian
M14 melanoma = system: M14 melanoma
RPMI-8226 leukemia = system: RPMI-8226 leukemia
NCI-H23 lung = system: NCI-H23 lung
OVCAR-5 ovarian = system: OVCAR-5 ovarian
SK-MEL-2 melanoma = system: SK-MEL-2 melanoma
HCC-2998 colon = system: HCC-2998 colon
A498 renal = system: A498 renal
A549 NSCLC = system: A549 NSCLC
LOX IMVI melanoma = system: LOX IMVI melanoma
OVCAR-8 ovarian = system: OVCAR-8 ovarian
K-562 leukemia = system: K-562 leukemia
SF-539 CNS = system: SF-539 CNS
HCT-15 colon = system: HCT-15 colon
MDA-MB-435 = system: MDA-MB-435
SK-MEL-28 melanoma = system: SK-MEL-28 melanoma
UACC-257 melanoma = system: UACC-257 melanoma
SF-295 CNS = system: SF-295 CNS
UACC-62 melanoma = system: UACC-62 melanoma
MCF7 breast = system: MCF7 breast
SNB-75 CNS = system: SNB-75 CNS

N#Cc1cc(S(=O)(=O)Nc2nc3ccccc3s2)c(SCc2ccccc2)cc1Cl
GI50 (OVCAR-4 ovarian): 34.4 µM
TGI (OVCAR-4 ovarian): > 100 µM
GI50 (RXF 393 renal): 20.6 µM
TGI (RXF 393 renal): 45.4 µM
GI50 (HCT-116 colon): 16.1 µM
TGI (HCT-116 colon): 32.5 µM
GI50 (SNB-19 CNS): 20.1 µM
TGI (SNB-19 CNS): 47.7 µM
GI50 (TK-10 renal): 37.3 µM
TGI (TK-10 renal): 97.5 µM
GI50 (BT-549 breast): 20 µM
TGI (BT-549 breast): 48.9 µM
GI50 (DU-145 prostate): 24.4 µM
TGI (DU-145 prostate): 58.6 µM
GI50 (NCI-H522 lung): 11.3 µM
TGI (NCI-H522 lung): 32.3 µM
GI50 (U251 CNS): 19.2 µM
TGI (U251 CNS): 38.2 µM
GI50 (NCI/ADR-RES ovarian): 30.6 µM
TGI (NCI/ADR-RES ovarian): > 100 µM
GI50 (HOP-92 NSCLC): 24.1 µM
TGI (HOP-92 NSCLC): 43.3 µM
GI50 (UO-31 renal): 17.8 µM
TGI (UO-31 renal): 42.1 µM
GI50 (MALME-3M melanoma): 21.4 µM
TGI (MALME-3M melanoma): 49.6 µM
GI50 (HS 578T breast): 22.4 µM
TGI (HS 578T breast): 53.8 µM
GI50 (CAKI-1 renal): 18.6 µM
TGI (CAKI-1 renal): 45 µM
GI50 (CCRF-CEM leukemia): 28.5 µM
TGI (CCRF-CEM leukemia): 94.6 µM
GI50 (HL-60(TB) leukemia): 51.5 µM
TGI (HL-60(TB) leukemia): > 100 µM
GI50 (OVCAR-3 ovarian): 22.3 µM
TGI (OVCAR-3 ovarian): 59.5 µM
GI50 (NCI-H460 lung): 18.4 µM
TGI (NCI-H460 lung): > 100 µM
GI50 (MOLT-4 leukemia): 27.4 µM
TGI (MOLT-4 leukemia): 74.4 µM
GI50 (KM12 colon): 19.8 µM
TGI (KM12 colon): 46.7 µM
GI50 (NCI-H226 lung): 31 µM
TGI (NCI-H226 lung): 94.3 µM
GI50 (SN12C renal): 19.2 µM
TGI (SN12C renal): 41.5 µM
GI50 (ACHN renal): 24.7 µM
TGI (ACHN renal): 75 µM
GI50 (MDA-MB-231 breast): 26.7 µM
TGI (MDA-MB-231 breast): 82.6 µM
GI50 (SR leukemia): 37.7 µM
TGI (SR leukemia): > 100 µM
GI50 (T-47D breast): 22.8 µM
TGI (T-47D breast): 73.7 µM
GI50 (HT29 colon): 23.6 µM
TGI (HT29 colon): 55.8 µM
GI50 (PC-3 prostate): 23.1 µM
TGI (PC-3 prostate): 51.1 µM
GI50 (786-0 renal): 19.3 µM
TGI (786-0 renal): 39.9 µM
GI50 (SK-MEL-5 melanoma): 15.4 µM
TGI (SK-MEL-5 melanoma): 31 µM
GI50 (HOP-62 NSCLC): 24.5 µM
TGI (HOP-62 NSCLC): 45.7 µM
GI50 (COLO 205 colon): 26.5 µM
TGI (COLO 205 colon): 88.6 µM
GI50 (SW-620 colon): 19.8 µM
TGI (SW-620 colon): 43.7 µM
GI50 (EKVX NSCLC): 17.1 µM
TGI (EKVX NSCLC): 34.5 µM
GI50 (SF-268 CNS): 24.7 µM
TGI (SF-268 CNS): 78.5 µM
GI50 (IGROV1 ovarian): 18.1 µM
TGI (IGROV1 ovarian): 46.6 µM
GI50 (M14 melanoma): 18.9 µM
TGI (M14 melanoma): 37.1 µM
GI50 (RPMI-8226 leukemia): 27.9 µM
TGI (RPMI-8226 leukemia): > 100 µM
GI50 (NCI-H23 lung): 22.4 µM
TGI (NCI-H23 lung): 57.7 µM
GI50 (OVCAR-5 ovarian): 23.8 µM
TGI (OVCAR-5 ovarian): 54.7 µM
GI50 (SK-MEL-2 melanoma): 15.3 µM
TGI (SK-MEL-2 melanoma): 36.8 µM
GI50 (HCC-2998 colon): 17.7 µM
TGI (HCC-2998 colon): 36.3 µM
GI50 (A498 renal): 20.3 µM
TGI (A498 renal): 45.8 µM
GI50 (A549 NSCLC): 15.4 µM
TGI (A549 NSCLC): 35.3 µM
GI50 (LOX IMVI melanoma): 20.8 µM
TGI (LOX IMVI melanoma): 48.2 µM
GI50 (OVCAR-8 ovarian): 6.12 µM
TGI (OVCAR-8 ovarian): 39.8 µM
GI50 (K-562 leukemia): 38.5 µM
TGI (K-562 leukemia): > 100 µM
GI50 (SF-539 CNS): 17.4 µM
TGI (SF-539 CNS): 34.8 µM
GI50 (HCT-15 colon): 28.5 µM
TGI (HCT-15 colon): 66.4 µM
GI50 (MDA-MB-435): 23.8 µM
TGI (MDA-MB-435): 49.5 µM
GI50 (SK-MEL-28 melanoma): 28.8 µM
TGI (SK-MEL-28 melanoma): 87.8 µM
GI50 (UACC-257 melanoma): 15.4 µM
TGI (UACC-257 melanoma): 35.2 µM
GI50 (SF-295 CNS): 13.6 µM
TGI (SF-295 CNS): 44.1 µM
GI50 (UACC-62 melanoma): 11.8 µM
TGI (UACC-62 melanoma): 29.5 µM
GI50 (MCF7 breast): 30.7 µM
TGI (MCF7 breast): > 100 µM
GI50 (SNB-75 CNS): 26.2 µM
TGI (SNB-75 CNS): 63.3 µM
